Data published in patent US8288430B2, “Spiro(5.5)undecane derivatives” (Grunenthal GmbH, priority 2008, dated 2012).

What was measured:
hERG ion channel = hERG ion channel (Homo sapiens, UniProt Q12809); assay: hERG K+ channel binding assay, displacement of [3H] dofetilide; conditions: for Ki (hERG) column, value given as % (1 μM): test concentration 1 μM
[1] = system: Sprague Dawley rats (mechanical allodynia after spinal nerve ligature); assay: Chung model: mononeuropathic pain after spinal nerve ligature (SNL); assay type: in vivo; conditions: at 5 μg/kg

Sequence of hERG ion channel (Q12809 whole entry): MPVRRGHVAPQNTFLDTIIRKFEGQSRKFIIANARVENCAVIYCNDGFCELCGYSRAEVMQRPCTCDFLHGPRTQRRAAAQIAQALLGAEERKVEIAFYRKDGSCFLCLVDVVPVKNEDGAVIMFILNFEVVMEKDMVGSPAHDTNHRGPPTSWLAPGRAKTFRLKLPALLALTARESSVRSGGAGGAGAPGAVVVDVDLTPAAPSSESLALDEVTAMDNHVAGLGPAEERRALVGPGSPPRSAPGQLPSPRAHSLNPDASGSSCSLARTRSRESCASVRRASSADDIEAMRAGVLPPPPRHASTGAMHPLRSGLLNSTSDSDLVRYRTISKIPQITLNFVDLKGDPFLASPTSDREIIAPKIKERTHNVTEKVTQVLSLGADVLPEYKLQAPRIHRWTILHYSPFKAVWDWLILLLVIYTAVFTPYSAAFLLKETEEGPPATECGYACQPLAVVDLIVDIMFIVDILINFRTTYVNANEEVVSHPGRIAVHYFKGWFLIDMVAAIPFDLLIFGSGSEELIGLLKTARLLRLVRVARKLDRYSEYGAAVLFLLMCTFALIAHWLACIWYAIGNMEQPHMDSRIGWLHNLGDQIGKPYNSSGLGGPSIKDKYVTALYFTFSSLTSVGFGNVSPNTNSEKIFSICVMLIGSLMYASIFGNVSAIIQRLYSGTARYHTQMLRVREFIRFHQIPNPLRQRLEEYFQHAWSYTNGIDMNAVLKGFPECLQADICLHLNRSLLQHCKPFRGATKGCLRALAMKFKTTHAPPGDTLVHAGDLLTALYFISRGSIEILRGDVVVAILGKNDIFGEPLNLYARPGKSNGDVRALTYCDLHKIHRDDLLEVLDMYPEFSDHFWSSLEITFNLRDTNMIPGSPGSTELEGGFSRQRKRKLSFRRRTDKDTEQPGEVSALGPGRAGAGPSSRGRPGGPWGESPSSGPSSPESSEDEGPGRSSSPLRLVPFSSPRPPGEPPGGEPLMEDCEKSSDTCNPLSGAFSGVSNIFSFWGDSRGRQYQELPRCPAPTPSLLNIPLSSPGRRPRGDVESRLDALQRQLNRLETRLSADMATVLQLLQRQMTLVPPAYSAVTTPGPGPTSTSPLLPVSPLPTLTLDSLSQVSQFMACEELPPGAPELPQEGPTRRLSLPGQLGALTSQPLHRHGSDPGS

CN(C)C1(Cc2ccccc2)CCC2(CCCc3c2[nH]c2ccccc32)CC1 (stereo not drawn)
melting point: 174 to 186 °C

CN(C)C1(c2ccccc2)CCC2(CC1)NCCc1c2[nH]c2ccccc12 (single isomer, unassigned) [C-1, reference compound]
Ki (hERG) column, value given as % (1 μM) (hERG ion channel): 19% (1 μM)

CN(C)C1(c2ccccc2)CCC2(CC1)NCCc1c2[nH]c2ccccc12 (single isomer, unassigned) [C-2, reference compound]
Ki (hERG ion channel): 490 nM

CN(C)C1(c2ccccc2)CCC2(CCCc3c2[nH]c2ccccc32)CC1 (single isomer, unassigned) [Ex. 1, N,N-dimethyl-4′-phenyl-2,3,4,9-tetrahydrospiro[carbazole-1,1′-cyclohexane]-4′-amine]
Ki (hERG) column, value given as % (1 μM) (hERG ion channel): 13% (1 μM)

CN(C)C1(c2ccccc2)CCC2(CCCc3c2[nH]c2ccccc32)CC1 (single isomer, unassigned) [Ex. 2, N,N-dimethyl-4′-phenyl-2,3,4,9-tetrahydrospiro[carbazole-1,1′-cyclohexane]-4′-amine]
SNL Rat, i.v. [1]: 19% MPE | Ki (hERG) Mean [μM] (hERG ion channel): n.e.
